Data set [1] in a line: physchem. As to conditions: octanol/water, pH 7.4.
A short description of data set [2]: in vivo. As to conditions: Sprague-Dawley, rat, po, 10 mg/kg.

Results on 24 molecules are retold here after ChEMBL document CHEMBL1145388, “Pyridazinoquinolinetriones as NMDA glycine-site antagonists with oral antinociceptive activity in a model of neuropathic pain” (J Med Chem, 2007).

For orientation: logD means the decadic logarithm of the distribution of all forms, ionised or not, between an organic phase and buffer at a given pH. As a reminder, the bioavailability is dose-corrected exposure relative to a reference, in per cent. A higher bioavailability goes with good availability.

As for `CC(C#Cc1ccsc1)n1[nH]c(=O)c2[nH]c3cc(Cl)ccc3c(=O)c2c1=O` (stereo not drawn), the logD in data set [1] is 1.9.
On the same count and under the same terms, in the case of `CC(C#Cc1ccccc1)n1[nH]c(=O)c2[nH]c3cc(Cl)ccc3c(=O)c2c1=O` (stereo not drawn) it was 1.4.
On the same count and under the same terms, in the case of `CC(c1ccsc1)n1[nH]c(=O)c2[nH]c3cc(Cl)ccc3c(=O)c2c1=O` (stereo not drawn) it was 0.9.
Take `CC(c1ccncc1)n1[nH]c(=O)c2[nH]c3cc(Cl)ccc3c(=O)c2c1=O.CS(=O)(=O)O` (racemic): in data set [1], the logD is < 0.3. The same molecule had a bioavailability at 24 h in data set [2] of 30%.
For the molecule `COC(=O)c1ccc(Cn2nc(O)c3[nH]c4cc(Cl)ccc4c(=O)c3c2=O)cc1`, the logD in data set [1] stood at 1.17. In data set [2], this molecule had a bioavailability at 24 h of 7%.
In turn, `O=c1[nH]n(CC#Cc2ccccc2)c(=O)c2c(=O)c3ccc(Cl)cc3[nH]c12` gave a bioavailability at 24 h in data set [2] of 16%.
As for `CC(c1cc2ccccc2o1)n1[nH]c(=O)c2[nH]c3cc(Cl)ccc3c(=O)c2c1=O` (stereo not drawn), the logD in data set [1] turned out to be 2.
Turning to `CS(=O)(=O)O.O=c1c2ccc(Cl)cc2[nH]c2c(O)nn(Cc3ccncc3)c(=O)c12`, the logD in data set [1] is < 0.3. Also, the bioavailability at 24 h in data set [2] amounted to 5%.
The like results for `CN(C)C(=O)Nc1ccc(Cn2[nH]c(=O)c3[nH]c4cc(Cl)ccc4c(=O)c3c2=O)cc1` were, in that order, 1.1 and < 1%.
`CC(C#Cc1cccs1)n1[nH]c(=O)c2[nH]c3cc(Cl)ccc3c(=O)c2c1=O` (stereo not drawn) registered a logD in data set [1] of 2.4.
`O=c1[nH]n(Cc2cc3ccccc3s2)c(=O)c2c(=O)c3ccc(Cl)cc3[nH]c12` had a bioavailability at 24 h in data set [2] of 12%.
Take `O=c1[nH]n(Cc2ccno2)c(=O)c2c(=O)c3ccc(Cl)cc3[nH]c12`: the logD in data set [1] was < 0.5. This molecule displayed a bioavailability at 24 h in data set [2] of 40%.
`COCCNC(=O)c1cccc(Cn2[nH]c(=O)c3[nH]c4cc(Cl)ccc4c(=O)c3c2=O)c1`: the logD in data set [1] came to 1.2.
For the molecule `Cc1ccc(Cn2nc(O)c3[nH]c4cc(Cl)ccc4c(=O)c3c2=O)o1`, the logD in data set [1] is < 0.5.
On the same count and under the same terms, next, `Cc1cc(Cn2[nH]c(=O)c3[nH]c4cc(Cl)ccc4c(=O)c3c2=O)oc1C`: 1.
On the same count and under the same terms, in the case of `C#CC(C)n1[nH]c(=O)c2[nH]c3cc(Cl)ccc3c(=O)c2c1=O` (stereo not drawn) it was < 0.5.
With `CS(=O)(=O)O.O=c1c2ccc(Cl)cc2[nH]c2c(O)nn(Cc3cnccn3)c(=O)c12`, the logD in data set [1] is < 0.5. In data set [2], this molecule registered a bioavailability at 24 h of 37%.
Molecule `O=c1c2ccc(Cl)cc2[nH]c2c(O)nn(Cc3cc4ccccc4o3)c(=O)c12` displayed a logD in data set [1] of 2.1. This molecule also returned a bioavailability at 24 h in data set [2] of 25%.
For the molecule `CCC(c1ccncc1)n1[nH]c(=O)c2[nH]c3cc(Cl)ccc3c(=O)c2c1=O` (racemic), in data set [1], the logD amounted to 0.6.
Take `O=C(O)c1ccc(Cn2[nH]c(=O)c3[nH]c4cc(Cl)ccc4c(=O)c3c2=O)cc1`: the logD in data set [1] is < 0.5.
On the same count and under the same terms, next, `O=c1[nH]n(Cc2nccs2)c(=O)c2c(=O)c3ccc(Cl)cc3[nH]c12`: < 0.5.
In turn, `O=c1c2ccc(Cl)cc2[nH]c2c(O)nn(Cc3ccsc3)c(=O)c12` had a logD in data set [1] of 1.2. In data set [2], this molecule had a bioavailability at 24 h of 1.2%.
As to `COC(=O)c1ccc(C(C)n2[nH]c(=O)c3[nH]c4cc(Cl)ccc4c(=O)c3c2=O)cc1` (stereo not drawn), the logD in data set [1] stood at 1.3.
Take `Cc1ccsc1Cn1[nH]c(=O)c2[nH]c3cc(Cl)ccc3c(=O)c2c1=O`: in data set [1], the logD was 1.4. In data set [2], this molecule yielded a bioavailability at 24 h of 28%.
